The values below come from article PMC4595849, “Rational Design of Benzylidenehydrazinyl-Substituted Thiazole Derivatives as Potent Inhibitors of Human Dihydroorotate Dehydrogenase with in Vivo Anti-arthritic Activity” (Scientific Reports, 2015).

Data set [1] concerns the target T1, hDHODH (Met30-Arg396) (Homo sapiens, UniProt Q02127).
T1 construct: hDHODH (Met30-Arg396) was expressed and purified in the same manner as described in our recently published work; made in house
As to the kind of experiment: hDHODH enzyme inhibition, DCIP assay. Type of data set: biochemical. The settings on record: for LLE: LLE = pIC50 − clogP; for IC50: hDHODH, mean ± SD of three independent experiments, IC50 measured if inhibition rate at 10 μM was larger than 50%; for fold decrease in potency compared with 19: hDHODH IC50 relative to 19. The text has this:
The plasmid coding for human DHODH was kindly provided by Prof. Jon Clardy (Harvard Medical School)[7]. hDHODH (Met30-Arg396) was expressed and purified in the same manner as described in our recently published work[38]. We determined the effect of benzylidenehydrazinyl-substituted thiazole derivatives to inhibit hDHODH by using a DCIP assay method.

On the set-up of data set [2]: method as in PMID 16645972. The settings on record: in patients; cited from earlier work.
The test system of data set [3] is Wistar rats with collagen-induced arthritis (CIA). In words: collagen-induced arthritis (CIA) rat efficacy study. The data set is classed as in vivo. The settings on record: i.p. daily for 28 days, versus model group. The procedure: Compound 19 and methotrexate were injected intraperitoneally once per day for 28 days into the Wistar rats with collagen-induced arthritis (CIA). The swelling scores of the arthritis and morphological observations of the rats’ joint tissues were employed to examine the anti-arthritic effect of compound 19 (Fig. 5). With the onset of arthritis, the swelling scores were an indication of the disease states. The maximum score was 8, which is the sum of the scores from both hind paws of each rat and indicates a severe arthritis state. During the experiment, the control rats had normal eating patterns, shiny hair and continuously increasing body weight.
Adult male Wistar rats (120–140 g) were purchased from Shanghai SLRC Laboratory animal company and housed in standard pathogen-free cages. The environment was climate-controlled (20–25 °C, 50–60% relative humidity) with a 12-hour light and 12-hour dark cycle as described previously. Sterilized food and water were provided naturally. All procedures involving animals conform to the Chinese government guidelines for animal experiments, and were conducted with approval of the Institutional Animal Care and Use Committee of East China University of Science & Technology. Bovine type II collagen (CII, Chondrex, USA) was emulsified in the same manner as that conducted previously to get the CIA model. Specifically, 49 rats were randomly assigned into five groups: normal control (solvent, i.p., n = 6), CIA model (solvent, i.p., n = 11), Methotrexate-treated (0.3 mg/kg, i.p., n = 10), compound 19-treated (5 mg/kg, i.p., n = 11) and compound 19-treated (30 mg/kg, i.p., n = 11) groups. Methotrexate, reported to has a therapeutic effect on rheumatoid arthritis, was used as the positive control in this study. The main workflows of this experiment were consistent with that reported recently. During the 28 days of the experiment, compound 19 (5 mg/kg and 30 mg/kg) and Methotrexate (0.3 mg/kg) were injected intraperitoneally once every day. At the same time, the normal control group and model group were administered the same amount of solution. The solvent of 19 was made up of 5% DMSO, 45% saline and 50% PEG400.
In this study, the clinical-mimic arthritis was observed and the severity was assessed by the same criteria as that applied in reference 65: 0, normal, without any swelling; 1, mild swelling; 2, swelling; 3, significant swelling; 4, severe swelling. The maximum score was 8, which was the sum of the scores from both hind paws of each rat. When arthritic signs appeared, the incidence and severity of the arthritis in rats with different treatments were evaluated via arthritis scores recorded every 2 days under blinded conditions. Measurement of body weight was taken every 3 days. All Wistar rats were killed after 28 day’s trails. Pathological detections against the whole knee joints of the rats were conducted using the same method as described previously. Mean ± standard deviation […] was applied to present the data in this study. SPSS was used to evaluate the statistical significance of differences among the groups. P ≤ 0.05 was the threshold to be statistically significant.

In data set [4] the target is T1, hDHODH (Met30-Arg396). Further details: method as in PMID 22984987. Conditions: from earlier virtual screen; cited from earlier work.

Where “and” joins values, the source holds several entries; their conditions need not be identical. Equal values may be shown once. Read-outs that look alike come from different tables or passages of the source.

Broadly, the IC50 is the midpoint of a concentration-inhibition curve.

T1 sequence (Q02127 29-395): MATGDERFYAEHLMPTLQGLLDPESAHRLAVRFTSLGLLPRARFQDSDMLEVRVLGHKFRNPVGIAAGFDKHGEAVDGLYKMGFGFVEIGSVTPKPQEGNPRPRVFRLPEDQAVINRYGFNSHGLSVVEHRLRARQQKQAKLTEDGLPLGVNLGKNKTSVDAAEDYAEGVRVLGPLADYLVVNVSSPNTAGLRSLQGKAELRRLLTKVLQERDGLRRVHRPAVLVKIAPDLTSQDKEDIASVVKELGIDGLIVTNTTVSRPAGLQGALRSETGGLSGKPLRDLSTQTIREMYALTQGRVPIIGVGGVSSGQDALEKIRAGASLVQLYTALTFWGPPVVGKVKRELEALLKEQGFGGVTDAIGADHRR

With `Brc1ccc(-c2csc(N/N=C/c3ccco3)n2)cc1` [Compound 13], in data set [1], the LLE is listed as below 0 and the half-inhibitory concentration (IC50) is above 10000 nM.

Turning to `Oc1c(Cl)cc(Cl)cc1/C=N/Nc1nc(-c2ccc(Cl)cc2Cl)cs1` [Compound 10], in data set [1], the LLE is below −2.53 and the concentration for half-maximal inhibition (IC50) is above 10000 nM.

Regarding `Cc1oncc1C(=O)Nc1ccc(C(F)(F)F)cc1` [Leflunomide, leflunomide], the half-life entry in data set [2] is “approximately two”.

For the compound `CCOC(=O)c1ccccc1/C=N/Nc1nc(-c2ccccc2Cl)cs1` [Compound 23, (E)-ethyl 2-((2-(4-(2-chlorophenyl)thiazol-2-yl)hydrazono)methyl)benzoate], in data set [1], the LLE stood at 0.75, the “fold decrease in potency compared with 19” value (“fold decrease in potency” below) came to 58 fold and the IC50 was found to be 1870 ± 30 nM.

As for `O=C(O)c1ccc(/C=N/Nc2nc(-c3ccccc3Cl)cs2)cc1` [Compound 21, (E)-4-((2-(4-(2-chlorophenyl)thiazol-2-yl)hydrazono)methyl)benzoic acid], in data set [1], the “inhibition of hDHODH (in words)” value is reported as “loss of activity”, the LLE is below 0.28 and the half-inhibitory concentration (IC50) is above 10000 nM.

As to `Nc1cccc(C(=O)O)c1/C=N/Nc1nc(-c2ccccc2Cl)cs1` [Compound 25, (E)-3-amino-2-((2-(4-(2-chlorophenyl)thiazol-2-yl)hydrazono)methyl)benzoic acid], in data set [1], the “inhibition of hDHODH (in words)” value is recorded as “sharp decrease in inhibitory activity”, the LLE is listed as below 1.22 and the half-inhibitory concentration (IC50) is above 10000 nM.

In the case of `NC(=O)c1cccc(-c2csc(N/N=C/c3ccccc3C(=O)O)n2)c1` [Compound 28, (E)-2-((2-(4-(3-carbamoylphenyl)thiazol-2-yl)hydrazono)methyl)benzoic acid], in data set [1], the “inhibition of hDHODH (in words)” value was “sharp decrease in potency”, the LLE stood at 4.38 and half-maximal inhibition (IC50) was put at 1175 ± 8.5 nM.

In data set [1], `CC(C)c1ccc(-c2csc(N/N=C/c3ccccc3O)n2)cc1` [Compound 16, (E)-2-((2-(4-(4-isopropylphenyl)thiazol-2-yl)hydrazono)methyl)phenol] yielded an LLE below −1.23 and an IC50 above 10000 nM.

As for `O=C(O)c1ccccc1/C=N/Nc1nc(-c2ccccc2)cs1` [Compound 26, (E)-2-((2-(4-phenylthiazol-2-yl)hydrazono)methyl)benzoic acid], in data set [1], the “inhibition of hDHODH (in words)” value was “slight decrease in activity”, the LLE came to 3.12 and the IC50 came out at 183 ± 3.1 nM.

For `O=C(O)c1ccccc1/C=N/Nc1nc(-c2ccc3ccccc3c2)cs1` [Compound 31, (E)-2-((2-(4-(naphthalen-2-yl)thiazol-2-yl)hydrazono)methyl)benzoic acid], in data set [1], the “inhibition of hDHODH (in words)” value was “moderate inhibitory activity”, the LLE is on record as 1.43 and the IC50 is 573 ± 21.6 nM.

On to `CN(Cc1cnc2nc(N)nc(N)c2n1)c1ccc(C(=O)N[C@@H](CCC(=O)O)C(=O)O)cc1` [methotrexate, reference compound], for which, in data set [3], the “influence on body weight” value is “no obvious influence on increase in body weight”.

On to `Brc1ccc(-c2csc(N/N=C/c3ccccc3)n2)cc1` [Compound 12], for which, in data set [1], the LLE was below −0.42 and the IC50 is above 10000 nM.

For the compound `O=Cc1ccccc1/C=N/Nc1nc(-c2ccccc2)cs1` [Compound 7], in data set [1], the LLE was 2.92 and the midpoint of inhibition, the IC50, lay at 365 ± 0.6 nM. Also, the IC50 in data set [4] is 365 nM.

In data set [1], `Oc1ccccc1/C=N/Nc1nc(-c2ccc(Cl)c(Cl)c2)cs1` [Compound 17, (E)-2-((2-(4-(3,4-dichlorophenyl)thiazol-2-yl)hydrazono)methyl)phenol] returned an LLE below −1.03 and an IC50 above 10000 nM.

For the compound `Cc1sc(N/N=C/c2ccccc2O)nc1-c1ccccc1` [Compound 15, (E)-2-((2-(5-methyl-4-phenylthiazol-2-yl)hydrazono)methyl)phenol], in data set [1], the “inhibition of hDHODH (in words)” value is given as “moderate inhibition”, the LLE turned out to be 0.48 and the IC50 amounted to 2437 ± 22.9 nM.

Take `Oc1ccccc1/C=N/Nc1nc(-c2ccccc2)cs1` [Compound 8]: in data set [1], the LLE is below 0.17 and the IC50 is above 10000 nM.

Turning to `O=C(O)c1ccccc1/C=N/Nc1nc(-c2cc(Cl)ccc2Cl)cs1` [Compound 30, (E)-2-((2-(4-(2,5-dichlorophenyl)thiazol-2-yl)hydrazono)methyl)benzoic acid], in data set [1], the “inhibition of hDHODH (in words)” value is “IC50 values in the double-digit nanomolar range”; the LLE was found to be 2.88; the half-maximal inhibitory concentration (IC50) was 43 nM and 43.1 nM.

In data set [1], `COc1cccc(-c2csc(N/N=C/c3ccccc3C(=O)O)n2)c1` [Compound 27, (E)-2-((2-(4-(3-methoxyphenyl)thiazol-2-yl)hydrazono)methyl)benzoic acid] had an LLE of 3.52 and an IC50 of 175 ± 1.8 nM.

Regarding `Oc1ccccc1/C=N/Nc1nc(-c2ccccc2Cl)cs1` [Compound 18, (E)-2-((2-(4-(2-chlorophenyl)thiazol-2-yl)hydrazono)methyl)phenol], in data set [1], the “inhibition of hDHODH (in words)” value is “moderate inhibition”, the LLE is recorded as 0.76 and half-maximal inhibition (IC50) was put at 1390 ± 38 nM.

With `Cc1sc(N/N=C/c2cc([N+](=O)[O-])ccc2O)nc1-c1ccccc1` [Compound 14], in data set [1], the LLE is recorded as below −0.48 and the IC50 was above 10000 nM.

On to `COC(=O)c1ccccc1/C=N/Nc1nc(-c2ccccc2Cl)cs1` [Compound 22, (E)-methyl 2-((2-(4-(2-chlorophenyl)thiazol-2-yl)hydrazono)methyl)benzoate], for which, in data set [1], the LLE is given as 1.02, the “fold decrease in potency” value was found to be 101 fold and the IC50 is 3270 ± 67.8 nM.

In data set [1], `Cc1ccc(-c2csc(N/N=C/c3ccccc3C(=O)O)n2)cc1` [Compound 29, (E)-2-((2-(4-(p-tolyl)thiazol-2-yl)hydrazono)methyl)benzoic acid] yielded an LLE of 2.64 and an IC50 of 155 ± 6.8 nM.

For `O=C(O)c1c(F)cccc1/C=N/Nc1nc(-c2ccccc2Cl)cs1` [Compound 24, (E)-2-((2-(4-(2-chlorophenyl)thiazol-2-yl)hydrazono)methyl)-6-fluorobenzoic acid], in data set [1], the LLE was 2.66, the “fold decrease in potency” value amounted to 7 fold and the IC50 came to 234 ± 6.8 nM.

On to `O=C(O)c1cccc(/C=N/Nc2nc(-c3ccccc3Cl)cs2)c1` [Compound 20, (E)-3-((2-(4-(2-chlorophenyl)thiazol-2-yl)hydrazono)methyl)benzoic acid], for which, in data set [1], the “inhibition of hDHODH (in words)” value is given as “loss of activity”, the LLE is given as below 0.34 and the IC50 was above 10000 nM.

For `O=C(O)c1ccccc1/C=N/Nc1nc(-c2ccc(-c3ccccc3)cc2)cs1` [Compound 32, (E)-2-((2-(4-([1,1′-biphenyl]-4-yl)thiazol-2-yl)hydrazono)methyl)benzoic acid], in data set [1], the “inhibition of hDHODH (in words)” value is given as “loss of activity”, the LLE was below −0.04 and the IC50 is above 10000 nM.

In data set [1], `Oc1c(Cl)cc(Cl)cc1/C=N/Nc1nc(-c2ccccc2)cs1` [Compound 9] had an LLE below −1.58 and a half-inhibitory concentration (IC50) above 10000 nM.

Regarding `C/C(=N\Nc1nc(-c2ccc(Br)cc2)cs1)c1ccccc1O` [Compound 11], in data set [1], the LLE is reported as below −0.81 and the IC50 was above 10000 nM.
